According to patent US20100152165A1, “CARBOXYLIC ACID DERIVATIVES” (priority 2006, published 2010):

Assays:
MIN6 cell = experiment: Insulin secretion promoting action using MIN6 cell; assay type: cell-based, mouse; conditions: relative activity value at 1 μM of compound, control (DMSO) 100%; KRB-HEPES with 2.8 mM or 22.4 mM glucose, 37° C. 2 hours
Method: Test Method 2: Insulin Secretion Promoting Action using MIN6 Cell
In this test, the insulin secretion promoting action of compounds to be tested was examined using a mouse pancreatic β cell strain, MIN6 cell. The test method is shown below.
The MIN6 cell was inoculated onto a 96 well plate to a density of 5×10^4 cells/well (200 μl). As the medium, DMEM medium (25 mM glucose) containing 10% FBS, 55 μM of 2-mercaptoethanol, 100 U/ml of penicillin and 100 μg/ml of streptomycin was used. Two days thereafter, the medium was removed using an aspirator, and the plate was once washed with 200 μl of KRB-HEPES (116 mM NaCl, 4.7 mM KCl, 1.2 mM KH2PO4, 1.2 mM MgSO4, 0.25 mM CaCl2, 25 mM NaHCO3, 0.005% FFA Free BSA, 24 mM HEPES (pH 7.4)) containing 2.8 mM glucose, which had been warmed up to 37° C., and again filled with 200 μl of the same buffer and incubated at 37° C. for 1 hour. After removing the aforementioned buffer using an aspirator, this was again washed with the buffer (200 μl), and then a predetermined concentration of each compound to be tested was added to KRB-HEPES containing 2.8 mM or 22.4 mM of glucose, added in 100 μl portions to respective wells and incubated at 37° C. for 2 hours. The aforementioned samples were collected and diluted 100 times, and the insulin concentration was determined using an insulin RIA kit (Amersham). […]

human GPR40 = molecular target: T1, human GPR40 (Homo sapiens, UniProt O14842); experiment: GPR40 agonist activity measurement (FLIPR, intracellular calcium); assay type: cell-based; conditions: human GPR40-expressed CHO cell strain; fluorescence intensity change one minute after measurement
T1 construct: expressed in transfected cells
Source text: Test Method 1: GPR40 Agonist Activity Measurement
i) Cloning of Human GPR40
In accordance with the following procedure, complete length sequence of GPR40 was obtained by a PCR method using a human genomic DNA (Clontech) as the template.
An oligonucleotide consisting of the nucleotide sequence represented by SEQ ID NO:1 was used as the forward primer, and an oligonucleotide consisting of the nucleotide sequence represented by SEQ ID NO:2 as the reverse primer. In this connection, a nucleotide sequence containing a XbaI recognition sequence is added to the […] of each of the aforementioned forward primer and reverse primer. In the PCR, a cycle consisting of 94° C. (15 seconds)/55° C. (30 seconds)/72° C. (1 minute) was repeated 30 times using a Taq DNA polymerase (Ex Taq DNA polymerase; Takara Bio) in the presence of 5% dimethyl sulfoxide (DMSO). As a result, a DNA fragment of about 0.9 kbp was amplified. This DNA fragment was digested with XbaI and then inserted into the XbaI site of a plasmid pEF-BOS-dhfr (Nucleic Acids Research, 18, 5322, 1990) to obtain a plasmid pEF-BOS-dhfr-GPR40.
Nucleotide sequence of GPR40 gene in the plasmid pEF-BOS-dhfr-GPR40 was determined by the dideoxy terminator method using a DNA sequencer (ABI 377 DNA Sequencer; Applied Biosystems). Nucleotide sequence of the GPR40 gene was as the nucleotide sequence represented by SEQ ID NO:3.
ii) Preparation of GPR40 Stable Expression Cell
A CHO dhfr cell (a dihydrofolate reductase (dhfr) gene-deficient CHO cell) was used as the cell for expressing GPR40 protein. In addition, the plasmid pEF-BOS-dhfr-GPR40 obtained in the aforementioned i) was used as the expression plasmid for expressing the GPR40 protein. The CHO dhfr cell in 10% fetal calf serum (FCS)-containing aMEM medium was inoculated into a 6 well plate and cultured overnight to a stage of 80 to 90% confluent, and then gene transfer of 2 μg per well of the plasmid pEF-BOS-dhfr-GPR40 was carried out using a transfection reagent (Lipofectamine 2000; Invitrogen). After 24 hours of the culturing since the gene transfer, the cells were diluted and inoculated again. […] After 20 days of culturing, the thus formed colonies of cells were individually recovered and cultured to obtain CHO cells stably expressing GPR40. Cells showing high reactivity for integral ligands oleic acid and linoleic acid were selected from them.
iii) GPR40 Agonist Activity Measurement
This test was measured by FLIPR (registered trade mark, Molecular Device) using change in the intracellular calcium concentration as the index. The test method is shown below.
A human GPR40-expressed CHO cell strain was inoculated in 6×10^3 cells per well portions into a 384 well black plate (Becton-Dickinson). A Calcium-3 assay kit (Molecular Device) was used as the […] and dissolved in 10 ml per bottle of HBSS-HEPES buffer (pH 7.4, 1×HBSS, 20 mM HEPES, Invitrogen). A 35.68 mg portion of probenecid (Sigma) was dissolved in 250 μl of 1 M NaOH and then adjusted by adding 250 μl of HBSS-HEPES buffer. The fluorescence pigment solution was prepared by mixing 16 ml of HBSS-HEPES buffer, 640 μl of the fluorescence pigment and 32 μl of probenecid, per plate. The medium in the plate was discarded, and the fluorescence pigment solution was dispensed in 40 μl per well portions and incubated at room temperature for 2 hours. Each compound to be tested was dissolved in DMSO, diluted with HBSS-HEPES buffer and then dispensed in 10 μl portions into the plate to start the reaction and measure change in the intracellular calcium concentration by FLIPR. EC50 values of the compounds to be tested were calculated from the dose-response curve of fluorescence intensity changes one minute after the measurement.

normal mice = experiment: Normal mice single administration oral glucose tolerance test; assay type: in vivo; conditions: male ICR mice; 10 mg/kg oral 30 minutes before glucose (2 g/kg) loading; at 30 minutes of glucose loading, based on control group
Method: Test Method 3: Normal Mice Single Administration Oral Glucose Tolerance Test
This test examined on the blood glucose suppressive action of compounds to be tested after glucose loading using normal mice. Male ICR mice (6 weeks of age) were reared for 1 week in advance, subjected to overnight fasting and then used as animals to be tested. Each compound to be tested was prepared into a 0.5% methyl cellulose suspension and orally administered at a dose of 10 mg/kg 30 minutes before the glucose (2 g/kg) loading. In the control group, 0.5% methyl cellulose was administered. Blood glucose decreasing ratio (%) at the time of 30 minutes of glucose loading was calculated based on the control group.

T1 sequence (O14842 whole entry R211H): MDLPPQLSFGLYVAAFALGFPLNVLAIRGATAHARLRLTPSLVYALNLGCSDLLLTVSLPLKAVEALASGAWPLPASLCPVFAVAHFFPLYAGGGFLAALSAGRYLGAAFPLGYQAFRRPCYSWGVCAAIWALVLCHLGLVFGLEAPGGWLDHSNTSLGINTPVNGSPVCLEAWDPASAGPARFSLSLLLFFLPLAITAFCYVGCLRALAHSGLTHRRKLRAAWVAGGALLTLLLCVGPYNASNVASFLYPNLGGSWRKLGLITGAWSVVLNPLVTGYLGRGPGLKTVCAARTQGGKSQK

EC50 (human GPR40)	Structure (SMILES)	Insulin secretion promoting action (MIN6 cell)	Blood glucose decreasing ratio (normal mice)
73 nM	O=C(O)CCc1ccc(OCc2ccc3c(c2)N(CCC(F)(F)F)CCC3)cc1F [Example 73]		
75 nM	CC(=O)N1CCCc2ccc(COc3ccc(CCC(=O)O)c(F)c3)cc21 [Example 74]		
19 nM	O=C(O)CCc1ccc(NCc2ccc3c(c2)N(c2ccccc2)CCC3)cc1F [Example 86]		
82 nM	CCCN1CCCc2c(CNc3ccc(CCC(=O)O)c(F)c3)cccc21 [Example 87]		
620 nM	O=C(O)CCc1ccc(NCc2cccc3c2CCCN3CCc2ccccc2)cc1F [Example 89]		21%
420 nM	O=C(O)CCc1ccc(NCc2cccc3c2CCCN3CCOc2ccccc2)cc1F [Example 104]	162%	20%
91 nM	COc1ccccc1OCCN1CCCc2c(CNc3ccc(CCC(=O)O)c(F)c3)cccc21 [Example 176]		
36 nM	COc1ccccc1CCN1CCCc2ccc(CNc3ccc(CCC(=O)O)c(F)c3)c(C)c21 [Example 188]		24%
930 nM	Cc1c(CNc2ccc(CCC(=O)O)c(F)c2)ccc2c1N(c1ccc(C(F)(F)F)cc1)CCC2 [Example 211]		
320 nM	Cc1cccc(N2CCCc3ccc(CNc4ccc(CCC(=O)O)c(F)c4)c(C)c32)c1 [Example 215]		
130 nM	Cc1ccc(CNc2ccc(CCC(=O)O)c(F)c2)c2c1N(CCOc1ccccc1)CCC2 [Example 424]		
730 nM	O=C(O)CCc1ccc(NCc2cccc3c2CCCN3CCOc2ccccc2)nc1 [Example 437]		
360 nM	O=C(O)[C@@H]1C[C@H]1c1ccc(NCc2cccc3c2CCCN3CCOc2ccccc2)cc1 [Example 455]		

Structure (SMILES)	EC50 (human GPR40)	Insulin secretion promoting action (MIN6 cell)	Blood glucose decreasing ratio (normal mice)
CCCN1CCCc2cccc(CNc3ccc(CCC(=O)[O-])c(F)c3)c21.[Na+] [Example 57]	97 nM	167%	
Cc1c(CNc2ccc(CCC(=O)[O-])c(F)c2)ccc2c1N(c1ccccn1)CCC2.[Na+] [Example 453]	25 nM		24%
